“Also recorded” adds a separate entry of the source.
How the values were obtained:
[1] = test system: 5XFAD AD-Tg mice; test: GFAP immunostaining (hippocampal astrogliosis) in 5XFAD AD-Tg mice; format: in vivo, mouse; conditions: AD-Tg/Foxp3-DTR+ mice, 3 weeks after last DTx injection
Protocol: (§1) Tissue processing and immunohistochemistry were performed on paraffin embedded sectioned mouse (6 μm thick) and human (10 μm thick) brains. For human ICAM-1 staining, primary mouse anti-ICAM (1:20 Abcam; ab2213) antibody was used. Slides were incubated for 10 min with 3% H2O2, and a secondary biotin-conjugated anti-mouse antibody was used, followed by biotin/avidin amplification with Vectastain ABC kit (Vector Laboratories). Subsequently, 3,3′-diaminobenzidine (DAB substrate) (Zytomed kit) was applied; slides were dehydrated and mounted with xylene-based mounting solution. For tissue stainings, mice were transcardially perfused with PBS prior to tissue excision and fixation. CP tissues were isolated under a dissecting microscope (Stemi DV4; Zeiss) from the lateral, third, and fourth ventricles of the brain. […] Microscopic analysis, was performed using a fluorescence microscope (E800; Nikon) or laser-scanning confocal microscope (Carl Zeiss, Inc.). The fluorescence microscope was equipped with a digital camera (DXM 1200F; Nikon), and with either a 20×NA 0.50 or 40×NA 0.75 objective lens (Plan Fluor; Nikon). […] For quantification of staining intensity, total cell and background staining was measured using ImageJ software (NIH), and intensity of specific staining was calculated, as previously described (Burgess et al, 2010). […]

[2] = test system: 5XFAD AD-Tg mice; test: Aβ plaque quantitation (immunohistochemistry) in 5XFAD AD-Tg mice; format: in vivo, mouse; conditions: AD-Tg/Foxp3-DTR+ mice, 3 weeks after last DTx injection
Protocol: as §1, with “brain. For whole mount CP staining, tissues were fixated with 2.5% paraformaldehyde (PFA) for 1 hour at 4° C., and subsequently transferred to PBS containing 0.05% sodium azide. Prior to staining, the dissected tissues were washed with PBS and blocked (20% horse serum, 0.3% Triton X-100, and PBS) for 1 h at room temperature. Whole mount staining with primary antibodies (in PBS containing 2% horse serum and 0.3% Triton X-100), or secondary antibodies, was performed for 1 h at room temperature. Each step was followed by three washes in PBS. The tissues were applied to slides, mounted with Immu-mount (9990402, from Thermo Scientific), and sealed with cover-slips. For staining of sectioned brains, two different tissue preparation protocols (paraffin embedded or microtomed free-floating sections) were applied, as previously described (Baruch et al, 2013; Kunis et al, 2013).” for “brain.”
From each brain, 6 μm coronal slices were collected, and eight sections per mouse, from four different pre-determined depths throughout the region of interest (dentate gyrus or cerebral cortex) were immunostained. […]

Diphtheria toxin [DTx] was tested, and the “hippocampal gliosis (GFAP immunostaining)” value [1] was “reduced astrogliosis; also recorded: reduction in hippocampal gliosis” and the “cerebral Aβ plaque burden in hippocampal dentate gyrus and cerebral cortex (5th layer)” value [2] was “reduced”.

From US11492405B2, “Reducing systemic regulatory t cell levels or activity for treatment of disease and injury of the CNS” (Yeda Research and Development Co. Ltd, priority 2014, dated 2022)
